The record followed here is patent publication US20230310428A1, “EGFR INHIBITOR AND PREPARATION METHOD AND USE THEREOF” (HONGYUN BIOTECH CO., LTD., priority 2020, published 2023).

Experiment in all cases: Growth inhibitory activity of compounds on BaF3 cell lines stably transfected with kinase (MTS, 48 h)
Common to all, as to assay type: cell-based

Experiment [1] has as its target T1, various mutants of kinase EGFR (BaF3 cell lines stably transfected with kinase) (Homo sapiens, UniProt P00533).
T1 construct: other: BaF3 cells stably transfected with EGFR Δ19Del; MTS, 48 h; other: BaF3 cell line stably transfected with EGFR Δ19Del
To be noted: BaF3 cell line stably transfected with EGFR Δ19Del, read-out: Δ19Del growth inhibitory activity IC50. In outline:
(§1)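 Transfected cells received compound (max 10 µM, 8 concentrations) for 48 h; MTS readout at 490 nm yielded IC50.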

In experiment [2] the target is T2, various mutants of kinase EGFR (BaF3 cell lines stably transfected with kinase) (Homo sapiens, UniProt P00533, C797S/L858R/T790M).
T2 construct: expressed in transfected cells; host or cells: BaF3
Particulars: BaF3 cell line stably transfected with EGFR L858R/T790M/C797S, read-out: L858R/T790M/ C797S growth inhibitory activity IC50. In a few lines: as §1

Experiment [3] has as its target T3, various mutants of kinase EGFR (BaF3 cell lines stably transfected with kinase) (Homo sapiens, UniProt P00533, L858R).
T3 construct: expressed in transfected cells; host or cells: BaF3
To be noted: BaF3 cell line stably transfected with EGFR L858R, read-out: L858R growth inhibitory activity IC50. In outline:
as §1

The target of experiment [4] is T4, various mutants of kinase EGFR (BaF3 cell lines stably transfected with kinase) (Homo sapiens, UniProt P00533, L858R/T790M).
T4 construct: expressed in transfected cells; host or cells: BaF3
T4 sequence (P00533 25-1210 T790M/L858R): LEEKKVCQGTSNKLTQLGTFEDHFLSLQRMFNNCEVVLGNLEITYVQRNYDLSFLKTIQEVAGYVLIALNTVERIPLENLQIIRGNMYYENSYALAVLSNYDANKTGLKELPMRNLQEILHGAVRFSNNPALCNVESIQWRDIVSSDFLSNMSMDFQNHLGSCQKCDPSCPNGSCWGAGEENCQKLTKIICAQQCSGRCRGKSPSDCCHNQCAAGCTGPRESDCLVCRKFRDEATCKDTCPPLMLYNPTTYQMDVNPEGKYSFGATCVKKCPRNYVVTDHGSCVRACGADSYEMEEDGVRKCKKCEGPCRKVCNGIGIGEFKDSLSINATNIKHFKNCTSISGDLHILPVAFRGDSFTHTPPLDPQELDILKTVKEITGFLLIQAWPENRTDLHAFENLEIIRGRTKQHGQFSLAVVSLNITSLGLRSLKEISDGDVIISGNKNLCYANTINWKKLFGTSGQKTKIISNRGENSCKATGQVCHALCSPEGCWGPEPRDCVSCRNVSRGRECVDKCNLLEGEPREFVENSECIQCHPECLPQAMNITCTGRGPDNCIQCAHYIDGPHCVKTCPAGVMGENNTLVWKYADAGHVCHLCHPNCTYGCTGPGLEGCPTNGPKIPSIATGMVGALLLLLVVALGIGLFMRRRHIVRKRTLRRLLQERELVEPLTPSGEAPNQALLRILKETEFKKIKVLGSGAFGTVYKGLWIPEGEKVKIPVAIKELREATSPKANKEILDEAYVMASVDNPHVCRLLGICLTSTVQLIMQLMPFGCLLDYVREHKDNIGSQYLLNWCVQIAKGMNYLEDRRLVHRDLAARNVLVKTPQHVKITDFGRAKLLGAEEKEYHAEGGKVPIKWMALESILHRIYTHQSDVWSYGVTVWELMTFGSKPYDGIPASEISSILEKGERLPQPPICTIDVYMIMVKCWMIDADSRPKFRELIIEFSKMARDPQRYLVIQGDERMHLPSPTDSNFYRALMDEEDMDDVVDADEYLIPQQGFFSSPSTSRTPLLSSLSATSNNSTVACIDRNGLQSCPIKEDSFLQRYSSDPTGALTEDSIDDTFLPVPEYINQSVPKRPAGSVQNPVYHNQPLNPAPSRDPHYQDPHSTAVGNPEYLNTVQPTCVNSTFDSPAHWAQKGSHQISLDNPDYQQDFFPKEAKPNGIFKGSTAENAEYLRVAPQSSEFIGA
To be noted: BaF3 cell line stably transfected with EGFR L858R/T790M, read-out: L858R/ T790M growth inhibitory activity IC50. In outline:
as §1

Experiment [5] has as its target T5, various mutants of kinase EGFR (BaF3 cell lines stably transfected with kinase) (Homo sapiens, UniProt P00533, T790M/C797S, form not given).
T5 construct: other: BaF3 cells stably transfected with EGFR Δ19Del/T790M/C797S; MTS, 48; other: BaF3 cell line stably transfected with EGFR Δ19Del/T790M/C7
Particulars: BaF3 cell line stably transfected with EGFR Δ19Del/T790M/C797S, read-out: Δ19Del/T790M/ C797S growth inhibitory activity IC50. In outline: as §1

Experiment [6] concerns the target T6, various mutants of kinase EGFR (BaF3 cell lines stably transfected with kinase) (Homo sapiens, UniProt P00533, T790M, form not given).
T6 construct: other: BaF3 cells stably transfected with EGFR Δ19Del/T790M; MTS, 48 h; other: BaF3 cell line stably transfected with EGFR Δ19Del/T790M; MTS, 48
To be noted: BaF3 cell line stably transfected with EGFR Δ19Del/T790M, read-out: Δ19Del/ T790M growth inhibitory activity IC50. In outline: as §1

T1 sequence (P00533 with tags, fused parts or gaps DEL746-750): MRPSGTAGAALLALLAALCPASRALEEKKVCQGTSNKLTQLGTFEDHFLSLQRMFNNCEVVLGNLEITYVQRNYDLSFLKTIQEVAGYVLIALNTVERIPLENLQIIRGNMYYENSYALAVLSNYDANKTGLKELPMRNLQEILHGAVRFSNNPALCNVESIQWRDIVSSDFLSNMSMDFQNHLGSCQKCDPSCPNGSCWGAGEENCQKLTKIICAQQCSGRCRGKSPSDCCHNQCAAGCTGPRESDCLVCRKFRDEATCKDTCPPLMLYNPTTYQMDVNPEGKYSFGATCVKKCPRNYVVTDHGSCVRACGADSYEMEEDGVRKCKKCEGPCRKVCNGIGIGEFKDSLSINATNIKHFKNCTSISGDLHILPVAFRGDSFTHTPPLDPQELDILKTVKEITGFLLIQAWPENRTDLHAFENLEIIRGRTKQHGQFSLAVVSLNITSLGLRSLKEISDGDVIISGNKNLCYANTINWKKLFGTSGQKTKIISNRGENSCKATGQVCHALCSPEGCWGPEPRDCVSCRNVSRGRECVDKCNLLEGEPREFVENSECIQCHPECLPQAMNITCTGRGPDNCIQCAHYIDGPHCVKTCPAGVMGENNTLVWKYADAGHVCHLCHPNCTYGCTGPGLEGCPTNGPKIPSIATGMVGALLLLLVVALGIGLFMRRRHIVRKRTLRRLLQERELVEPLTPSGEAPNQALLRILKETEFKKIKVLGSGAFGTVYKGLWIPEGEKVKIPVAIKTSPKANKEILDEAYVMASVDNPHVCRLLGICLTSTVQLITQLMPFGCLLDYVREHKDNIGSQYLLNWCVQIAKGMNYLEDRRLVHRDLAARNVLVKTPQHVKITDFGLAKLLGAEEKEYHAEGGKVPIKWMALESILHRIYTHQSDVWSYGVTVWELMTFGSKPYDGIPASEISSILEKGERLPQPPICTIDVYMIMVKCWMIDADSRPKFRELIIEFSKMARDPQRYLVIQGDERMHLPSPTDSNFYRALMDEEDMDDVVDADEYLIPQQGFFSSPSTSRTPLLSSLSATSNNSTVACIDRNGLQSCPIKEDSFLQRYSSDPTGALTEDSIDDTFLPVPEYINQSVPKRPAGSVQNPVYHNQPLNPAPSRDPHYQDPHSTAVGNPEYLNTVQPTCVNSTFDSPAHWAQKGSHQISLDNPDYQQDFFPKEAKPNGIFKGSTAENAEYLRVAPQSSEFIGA
T3 sequence (P00533 25-1210 L858R): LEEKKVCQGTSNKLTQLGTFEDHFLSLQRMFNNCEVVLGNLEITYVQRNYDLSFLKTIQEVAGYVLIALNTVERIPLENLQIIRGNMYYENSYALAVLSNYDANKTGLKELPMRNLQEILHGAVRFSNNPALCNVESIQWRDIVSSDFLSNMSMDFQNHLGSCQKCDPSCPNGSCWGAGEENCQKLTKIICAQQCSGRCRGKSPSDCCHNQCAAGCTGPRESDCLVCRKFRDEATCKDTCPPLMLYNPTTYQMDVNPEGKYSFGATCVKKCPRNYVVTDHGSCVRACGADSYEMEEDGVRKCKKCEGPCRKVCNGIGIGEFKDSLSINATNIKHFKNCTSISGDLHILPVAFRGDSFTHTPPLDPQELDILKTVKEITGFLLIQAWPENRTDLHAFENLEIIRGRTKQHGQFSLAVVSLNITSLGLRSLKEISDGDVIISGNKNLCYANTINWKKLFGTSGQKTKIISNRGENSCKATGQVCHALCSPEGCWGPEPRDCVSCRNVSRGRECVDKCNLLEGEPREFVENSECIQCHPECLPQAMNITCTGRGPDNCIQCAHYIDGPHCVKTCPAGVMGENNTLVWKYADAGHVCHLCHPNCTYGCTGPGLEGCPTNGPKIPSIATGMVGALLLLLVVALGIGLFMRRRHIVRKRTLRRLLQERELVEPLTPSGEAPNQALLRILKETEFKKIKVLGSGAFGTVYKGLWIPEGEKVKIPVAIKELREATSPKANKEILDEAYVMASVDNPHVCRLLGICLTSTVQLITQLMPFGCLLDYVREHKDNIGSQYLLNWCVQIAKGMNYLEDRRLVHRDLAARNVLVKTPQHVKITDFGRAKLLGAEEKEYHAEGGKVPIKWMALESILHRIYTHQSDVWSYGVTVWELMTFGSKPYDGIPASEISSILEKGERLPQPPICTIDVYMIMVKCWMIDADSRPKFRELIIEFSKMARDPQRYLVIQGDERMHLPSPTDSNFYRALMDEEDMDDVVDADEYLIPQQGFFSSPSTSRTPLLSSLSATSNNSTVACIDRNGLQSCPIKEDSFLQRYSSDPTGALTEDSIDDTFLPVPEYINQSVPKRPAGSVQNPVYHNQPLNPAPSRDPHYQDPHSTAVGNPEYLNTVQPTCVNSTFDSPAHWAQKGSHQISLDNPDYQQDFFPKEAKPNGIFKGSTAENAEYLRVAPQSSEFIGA
T6 sequence (P00533 with tags, fused parts or gaps DEL746-750/T790M, form open): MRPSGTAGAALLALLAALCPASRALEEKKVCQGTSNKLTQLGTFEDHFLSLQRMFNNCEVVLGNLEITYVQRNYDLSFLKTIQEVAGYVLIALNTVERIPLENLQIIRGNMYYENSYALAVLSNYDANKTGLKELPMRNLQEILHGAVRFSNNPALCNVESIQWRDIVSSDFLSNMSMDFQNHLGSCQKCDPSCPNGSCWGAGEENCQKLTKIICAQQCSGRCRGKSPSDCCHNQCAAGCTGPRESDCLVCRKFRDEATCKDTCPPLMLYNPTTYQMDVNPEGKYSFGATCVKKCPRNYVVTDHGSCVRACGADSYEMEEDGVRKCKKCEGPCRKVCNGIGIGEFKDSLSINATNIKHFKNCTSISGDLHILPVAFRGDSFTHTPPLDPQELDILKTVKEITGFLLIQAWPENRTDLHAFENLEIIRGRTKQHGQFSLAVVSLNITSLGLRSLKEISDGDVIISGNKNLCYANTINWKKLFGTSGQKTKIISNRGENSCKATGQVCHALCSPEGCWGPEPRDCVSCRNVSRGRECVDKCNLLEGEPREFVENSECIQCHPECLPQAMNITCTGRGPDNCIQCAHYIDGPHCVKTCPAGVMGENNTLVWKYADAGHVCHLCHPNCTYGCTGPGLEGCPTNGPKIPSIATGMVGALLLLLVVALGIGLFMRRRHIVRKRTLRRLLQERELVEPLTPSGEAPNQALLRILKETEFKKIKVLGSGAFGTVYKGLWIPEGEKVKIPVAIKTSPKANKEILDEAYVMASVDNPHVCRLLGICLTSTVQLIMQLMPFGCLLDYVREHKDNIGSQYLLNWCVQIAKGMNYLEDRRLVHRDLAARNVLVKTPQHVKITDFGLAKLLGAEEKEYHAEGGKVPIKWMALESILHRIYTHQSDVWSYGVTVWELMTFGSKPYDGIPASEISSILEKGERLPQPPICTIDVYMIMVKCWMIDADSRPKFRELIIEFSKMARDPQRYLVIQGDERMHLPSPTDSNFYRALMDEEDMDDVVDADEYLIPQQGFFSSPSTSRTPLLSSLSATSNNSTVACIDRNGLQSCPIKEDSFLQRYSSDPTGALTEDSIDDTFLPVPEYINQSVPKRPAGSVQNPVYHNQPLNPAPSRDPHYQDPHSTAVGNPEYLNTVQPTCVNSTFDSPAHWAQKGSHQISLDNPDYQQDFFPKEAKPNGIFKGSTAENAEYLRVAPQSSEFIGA

For `CCc1cc(Nc2ncc(Br)c(Nc3ccc4nccnc4c3NS(C)(=O)=O)n2)c(OC)cc1N1CCN(C)CC1` [Compound I-411], the IC50 in experiment [1], in experiment [2], in experiment [3], in experiment [4], in experiment [5] and in experiment [6] was ≤ 50 nM each time.
Turning to `CCc1cc(Nc2ncc(Br)c(Nc3ccc4nccnc4c3NS(C)(=O)=O)n2)c(OC)cc1N1CCC(N(C)C)C1` (stereo not drawn) [Compound I-412], the IC50 in experiment [1], in experiment [2], in experiment [3], in experiment [4], in experiment [5] and in experiment [6] was ≤ 50 nM each time.
For the compound `COc1cc(N2CCC(N3CCN(C)CC3)CC2)ccc1Nc1ncc(Br)c(Nc2ccc3nccnc3c2NS(=O)(=O)C(C)C)n1` [Compound I-413], the IC50 in experiment [1], in experiment [2], in experiment [3], in experiment [4], in experiment [5] and in experiment [6] was 50 to 500 nM each time.
For the compound `COc1cc(N2CCC(N3CCN(C)CC3)CC2)c(C)cc1Nc1ncc(Br)c(Nc2ccc3nccnc3c2NS(=O)(=O)C(C)C)n1` [Compound I-414], the IC50 in experiment [1] was 50 to 500 nM; in experiment [2], ≤ 50 nM; in experiment [3], 50 to 500 nM; in experiment [4], ≤ 50 nM; in experiment [5], ≤ 50 nM; in experiment [6], ≤ 50 nM.
Regarding `CCc1cc(Nc2ncc(Br)c(Nc3ccc4nccnc4c3NS(=O)(=O)C(C)C)n2)c(OC)cc1N1CCC(N2CCN(C)CC2)CC1` [Compound I-415], the IC50 in experiment [1], in experiment [2], in experiment [3], in experiment [4], in experiment [5] and in experiment [6] was ≤ 50 nM each time.
`COc1cc(N2CCC(N3CCN(C)CC3)CC2)ccc1Nc1nc(Nc2ccc3nccnc3c2N(C)S(C)(=O)=O)c2sccc2n1` [II-1-1]: the IC50 is 500 to 2500 nM in experiment [1]; 500 to 2500 nM in experiment [2]; 500 to 2500 nM in experiment [3]; 500 to 2500 nM in experiment [4]; 50 to 500 nM in experiment [5]; 500 to 2500 nM in experiment [6].
As to `COc1cc(N2CCC(N3CCN(C)CC3)CC2)c(C)cc1Nc1nc(Nc2ccc3nccnc3c2N(C)S(C)(=O)=O)c2sccc2n1` [II-1-2], the IC50 in experiment [1] was 50 to 500 nM; in experiment [2], 50 to 500 nM; in experiment [3], 50 to 500 nM; in experiment [4], 50 to 500 nM; in experiment [5] it was ≤ 50 nM; in experiment [6], 50 to 500 nM.
As to `CCc1cc(Nc2nc(Nc3ccc4nccnc4c3N(C)S(C)(=O)=O)c3sccc3n2)c(OC)cc1N1CCC(N2CCN(C)CC2)CC1` [II-1-3], the IC50 in experiment [1] was 50 to 500 nM; in experiment [2] it was ≤ 50 nM; in experiment [3], 50 to 500 nM; in experiment [4], 50 to 500 nM; in experiment [5], ≤ 50 nM; in experiment [6] it was 50 to 500 nM.
Turning to `COc1nc(N2CCC(N3CCN(C)CC3)CC2)ccc1Nc1nc(Nc2ccc3nccnc3c2N(C)S(C)(=O)=O)c2sccc2n1` [II-1-4], the IC50 in experiment [1], in experiment [2], in experiment [3], in experiment [4], in experiment [5] and in experiment [6] was 500 to 2500 nM throughout.
For the compound `CCc1cc(Nc2nc(Nc3ccc4nccnc4c3N(C)S(C)(=O)=O)c3sccc3n2)c(OC)nc1N1CCC(N2CCN(C)CC2)CC1` [II-1-6], the IC50 in experiment [1] is 500 to 2500 nM; in experiment [2], 50 to 500 nM; in experiment [3], 500 to 2500 nM; in experiment [4] it was 50 to 500 nM; in experiment [5], 50 to 500 nM; in experiment [6], 500 to 2500 nM.
Consider `CCc1cc(Nc2nc(Nc3ccc4nccnc4c3N(C)S(C)(=O)=O)c3sccc3n2)c(OC(F)(F)F)cc1N1CCC(N2CCN(C)CC2)CC1` [II-1-8], for which the IC50 in experiment [1] fell in the range of 500 to 2500 nM; in experiment [2], 50 to 500 nM; in experiment [3], 500 to 2500 nM; in experiment [4], 50 to 500 nM; in experiment [5], 50 to 500 nM; in experiment [6], 50 to 500 nM.
On to `C=Cc1cc(Nc2nc(Nc3ccc4nccnc4c3N(C)S(C)(=O)=O)c3sccc3n2)c(OC(F)(F)F)cc1N1CCC(N2CCN(C)CC2)CC1` [II-1-9], for which the IC50 in experiment [1] was 500 to 2500 nM; in experiment [2], 50 to 500 nM; in experiment [3] it was 500 to 2500 nM; in experiment [4], 50 to 500 nM; in experiment [5], ≤ 50 nM; in experiment [6], 50 to 500 nM.
With `COc1cc(N2CCC(N3CCN(C)CC3)CC2)c(Cc2ccccc2)cc1Nc1nc(Nc2ccc3nccnc3c2N(C)S(C)(=O)=O)c2sccc2n1` [II-1-11], the IC50 in experiment [1] lay within 500 to 2500 nM; in experiment [2], 500 to 2500 nM; in experiment [3], 500 to 2500 nM; in experiment [4] it was 500 to 2500 nM; in experiment [5], 500 to 2500 nM; in experiment [6] it was 50 to 500 nM.
For `COc1cc(N2CCN(C)CC2)c(C)cc1Nc1nc(Nc2ccc3nccnc3c2N(C)S(C)(=O)=O)c2sccc2n1` [II-1-12], the IC50 was in the range of 500 to 2500 nM in experiment [1]; 50 to 500 nM in experiment [2]; 500 to 2500 nM in experiment [3]; 50 to 500 nM in experiment [4]; 50 to 500 nM in experiment [5]; 500 to 2500 nM in experiment [6].
On to `COc1cc(N2CCC(N(C)C)CC2)c(C)cc1Nc1nc(Nc2ccc3nccnc3c2N(C)S(C)(=O)=O)c2sccc2n1` [II-1-13], for which the IC50 in experiment [1] is 500 to 2500 nM; in experiment [2] it was 50 to 500 nM; in experiment [3] it was 500 to 2500 nM; in experiment [4], 50 to 500 nM; in experiment [5], ≤ 50 nM; in experiment [6] it was 50 to 500 nM.
As for `COc1cc(N2CCC(N(C)C)C2)c(C)cc1Nc1nc(Nc2ccc3nccnc3c2N(C)S(C)(=O)=O)c2sccc2n1` (stereo not drawn) [II-1-14], the IC50 in experiment [1] is 500 to 2500 nM; in experiment [2], 500 to 2500 nM; in experiment [3], 500 to 2500 nM; in experiment [4], 50 to 500 nM; in experiment [5] it was 50 to 500 nM; in experiment [6], 500 to 2500 nM.
As for `CCc1cc(Nc2nc(Nc3ccc4nccnc4c3N(C)S(C)(=O)=O)c3sccc3n2)c(OC)cc1N1CCN(C)CC1` [II-1-15], the IC50 in experiment [1] was 500 to 2500 nM; in experiment [2], 50 to 500 nM; in experiment [3], 500 to 2500 nM; in experiment [4], 500 to 2500 nM; in experiment [5] it was 50 to 500 nM; in experiment [6] it was 500 to 2500 nM.
Consider `CCc1cc(Nc2nc(Nc3ccc4nccnc4c3N(C)S(C)(=O)=O)c3sccc3n2)c(OC)cc1N1CCC(N(C)C)CC1` [II-1-16], for which the IC50 in experiment [1] is 500 to 2500 nM; in experiment [2] it was 50 to 500 nM; in experiment [3], 50 to 500 nM; in experiment [4], 50 to 500 nM; in experiment [5], ≤ 50 nM; in experiment [6] it was 50 to 500 nM.
In the case of `CCc1cc(Nc2nc(Nc3ccc4nccnc4c3N(C)S(C)(=O)=O)c3sccc3n2)c(OC)cc1N1CCC(N(C)C)C1` (stereo not drawn) [II-1-17], the IC50 in experiment [1], in experiment [2], in experiment [3], in experiment [4], in experiment [5] and in experiment [6] was 50 to 500 nM throughout.
On to `COc1cc(N2CCC(N3CCN(C)CC3)CC2)c(C)cc1Nc1nc(Nc2ccc3nccnc3c2N(C)S(C)(=O)=O)c2[nH]ccc2n1` [II-1-19], for which the IC50 in experiment [1] lay in the range of 500 to 2500 nM; in experiment [2] it was 500 to 2500 nM; in experiment [3], 500 to 2500 nM; in experiment [4], 50 to 500 nM; in experiment [5], 500 to 2500 nM; in experiment [6] it was 500 to 2500 nM.
Take `CCc1cc(Nc2nc(Nc3ccc4nccnc4c3N(C)S(C)(=O)=O)c3[nH]ccc3n2)c(OC)cc1N1CCC(N2CCN(C)CC2)CC1` [II-1-20]: the IC50 in experiment [1] lay in the range of 500 to 2500 nM; in experiment [2], 500 to 2500 nM; in experiment [3] it was 50 to 500 nM; in experiment [4] it was 50 to 500 nM; in experiment [5] it was 50 to 500 nM; in experiment [6] it was 500 to 2500 nM.
`CCc1cc(Nc2nc(Nc3ccc4nccnc4c3N(C)S(C)(=O)=O)c3[nH]ccc3n2)c(OC)nc1N1CCC(N2CCN(C)CC2)CC1` [II-1-21]: the IC50 in experiment [1] lay in the range of 50 to 500 nM; in experiment [2], 50 to 500 nM; in experiment [3], 50 to 500 nM; in experiment [4] it was 500 to 2500 nM; in experiment [5] it was 50 to 500 nM; in experiment [6], 50 to 500 nM.
